Measurements taken from publication PMC4790851, “Iminosugars Inhibit Dengue Virus Production via Inhibition of ER Alpha-Glucosidases—Not Glycolipid Processing Enzymes” (PLoS Neglected Tropical Diseases, 2016).
pEC50: −log10 of the molar value. Where two headings read alike, the source gives them in different places.

How the values were obtained:
[1] = tested on: lysosomal β-N-acetylhexosaminidase; test: Free oligosaccharide analysis in MDMΦs: hexosaminidase-related FOS; assay type: cell-based, human; settings: MNTD, 48 h
Procedure: MDMΦ were infected with DENV2 16681 diluted to a multiplicity of infection (MOI) of 1 in X-VIVO10 without supplements for 90 minutes (20°C, with rocking). Upon removal of virus, fresh MDMΦ growth medium without IL-4 but containing serial dilutions of drug or control was placed on the cells, and cells were incubated for 48 hours (37°C, 5% CO2). For collection of infectious virus, supernatant was harvested and centrifuged for 5 minutes (room temperature, 400 x g) to pellet any cells/debris, and supernatants were aliquoted and stored at -80°C until analysis by plaque assay. In the case of FOS and GSL assays where MDMΦ were uninfected, treatments were essentially as above except that no virus was added and cells were washed three times with sterile PBS after 24 or 48 hours as per sample time point. […]
MDMΦ FOS were detected as previously described by Alonzi et al.. […] Glycans were separated by normal phase-high performance liquid chromatography (NP-HPLC), and peak area was used to assess molar quantity in comparison to standards of known identity and quantity. […] Absorbance values (Axxx) at 595 nm and 420 nm were measured, and the ratio of A595 to A420 was used to determine protein concentration in comparison to a serially diluted standard of bovine serum albumin.

ER α-glucosidase II = target: T1, ER α-glucosidase II (Homo sapiens, UniProt Q14697); test: Free oligosaccharide analysis in MDMΦs: Glc1Man4GlcNAc1; assay type: cell-based; settings: 48 h; for FOS representative of ER α-glucosidase II inhibition (Glc1Man4GlcNAc1): MNTD of iminosugar (NB-DNJ 100 μM), uninfected MDMΦs; for accumulation of Glc1Man4GlcNAc1: 1 μM, MDMΦs, all donors
T1 construct: endogenous in cells; host or cells: primary human monocyte-derived macrophages (MDMΦ)
T1 sequence (Q14697 29-944): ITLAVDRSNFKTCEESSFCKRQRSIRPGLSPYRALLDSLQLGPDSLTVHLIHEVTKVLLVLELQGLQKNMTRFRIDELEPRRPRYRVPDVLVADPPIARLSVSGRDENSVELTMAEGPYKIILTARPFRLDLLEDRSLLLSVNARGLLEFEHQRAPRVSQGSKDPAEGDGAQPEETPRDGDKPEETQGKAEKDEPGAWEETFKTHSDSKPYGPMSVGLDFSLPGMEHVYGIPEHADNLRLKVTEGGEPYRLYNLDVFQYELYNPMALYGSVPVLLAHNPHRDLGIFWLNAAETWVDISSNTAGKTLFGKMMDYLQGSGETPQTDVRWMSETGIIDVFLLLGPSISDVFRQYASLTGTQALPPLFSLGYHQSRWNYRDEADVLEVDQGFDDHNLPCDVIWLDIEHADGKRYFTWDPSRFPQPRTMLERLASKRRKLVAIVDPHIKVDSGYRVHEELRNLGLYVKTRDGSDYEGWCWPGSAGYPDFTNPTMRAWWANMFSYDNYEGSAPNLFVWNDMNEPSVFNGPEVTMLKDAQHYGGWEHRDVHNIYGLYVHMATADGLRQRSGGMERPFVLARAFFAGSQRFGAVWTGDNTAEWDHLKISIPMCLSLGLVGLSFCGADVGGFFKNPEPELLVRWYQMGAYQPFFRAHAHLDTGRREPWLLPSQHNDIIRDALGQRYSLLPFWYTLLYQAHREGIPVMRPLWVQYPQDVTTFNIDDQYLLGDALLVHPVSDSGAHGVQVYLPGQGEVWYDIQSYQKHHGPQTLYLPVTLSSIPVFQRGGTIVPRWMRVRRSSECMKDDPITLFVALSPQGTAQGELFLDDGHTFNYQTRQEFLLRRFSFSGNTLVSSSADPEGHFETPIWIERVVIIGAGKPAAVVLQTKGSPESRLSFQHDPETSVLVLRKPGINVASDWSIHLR
T1 sequence (P14314 15-528 partner): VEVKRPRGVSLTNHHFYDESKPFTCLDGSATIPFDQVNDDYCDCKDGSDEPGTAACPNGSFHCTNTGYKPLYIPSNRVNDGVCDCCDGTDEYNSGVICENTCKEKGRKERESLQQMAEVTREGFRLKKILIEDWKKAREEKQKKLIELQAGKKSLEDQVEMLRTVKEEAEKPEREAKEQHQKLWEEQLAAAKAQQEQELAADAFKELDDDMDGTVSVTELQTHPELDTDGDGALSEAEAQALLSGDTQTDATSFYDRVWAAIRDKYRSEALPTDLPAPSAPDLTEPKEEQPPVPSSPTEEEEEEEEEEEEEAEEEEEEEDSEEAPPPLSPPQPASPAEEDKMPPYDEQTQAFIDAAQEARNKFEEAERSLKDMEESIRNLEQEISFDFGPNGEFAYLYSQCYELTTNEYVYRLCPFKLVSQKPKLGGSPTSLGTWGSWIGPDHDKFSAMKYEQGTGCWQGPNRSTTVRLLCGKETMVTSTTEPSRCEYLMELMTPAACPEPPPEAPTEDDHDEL

[2] = tested on: monosialodihexosylganglioside (GM3) production; test: Glycosphingolipid analysis: GM3 levels in MDMΦs by NP-HPLC; assay type: cell-based, human; settings: 48 h; for GM3 production (%): uninfected MDMΦ, normalized to untreated controls, mean ± SD, min. 3 donors
DENV2 strain 16681 = test: In vitro antiviral assay: infectious DENV titer from infected MDMΦs by LLC-MK2 plaque assay; assay type: cell-based, dengue virus serotype 2
DENV = tested on: DENV; design: method as in PMID 23070155, PMID 23376501, PMID 22020302, PMID 22867971; settings: post-exposure therapeutic administration; cited from earlier work
[3] = Dengue virus, DENV2, LLC-MK2, 48 h, MDMΦs infected with DENV2 MOI 1, drug 48 h, infectious titer by plaque assay, table values with 95% confidence interval in parentheses, read-out: EC50

SMILES	FOS generated by inhibition of lysosomal β-N-acetylhexosaminidase [1]	FOS representative of ER α-glucosidase II inhibition (Glc1Man4GlcNAc1) (ER α-glucosidase II)	GM3 production (%) ([2]; 100 μM (MNTD))	pEC50 (DENV2 strain 16681; [3])	Enhancement (fold improvement of antiviral EC50 versus parent compound) (DENV2 strain 16681; EC50 parent / EC50 derivative, parent DNJ or castanospermine)	pEC50 (DENV2 strain 16681; MDMΦs infected with DENV2 MOI 1, drug 48 h, infectious titer by plaque assay, table values with 95% confidence interval in parentheses, read-out: EC50)	protection in lethal mouse models of DENV infection (DENV)	accumulation of Glc1Man4GlcNAc1 (ER α-glucosidase II)	pEC50 (DENV2 strain 16681; Dengue virus, DENV2, LLC-MK2, 48 h, MDMΦs, DENV2, 48 h, read-out: 95% CI for antiviral EC50)	inhibition at 10 µM ([2]; Homo sapiens, 10 μM, MDMΦs)	pEC50 ([2]; Homo sapiens, titration 1 to 100 μM, three donors, read-out: 95% CI for GM3 EC50)	GM3 production (%) ([2]; 31.6 μM (MNTD))
CCCCN1C[C@H](O)[C@@H](O)[C@@H](O)[C@H]1CO [NB-DGJ]	do produce FOS generated by inhibition of lysosomal β-N-acetylhexosaminidase	fail to produce detectable ER α-glucosidase associated FOS	7.3 ± 1.9%	–	–	–	–	–	–	–	–	–
CCCC(=O)O[C@H]1CN2CC[C@H](O)[C@@H]2[C@@H](O)[C@@H]1O [Celgosivir, 6-O-butanoyl-castanospermine]	–	–	100.9 ± 4.1%	5.30	7 fold	5.29	protection in lethal mouse models	led to accumulation of Glc1Man4GlcNAc1	–	–	–	–
CCCCN1C[C@H](O)[C@@H](O)[C@H](O)[C@H]1CO [NB-DNJ, N-butyl-DNJ]	–	accumulation of peaks representative of inhibition of both α-glucosidases	8.8 ± 3.6%	4.97	–	–	protection in lethal mouse models	led to accumulation of Glc1Man4GlcNAc1	4.84 to 5.11	90 to 95%	5.86 to 6.10	–
CCCCCCCCCN1C[C@H](O)[C@@H](O)[C@@H](O)[C@H]1CO [NN-DGJ]	do produce FOS generated by inhibition of lysosomal β-N-acetylhexosaminidase	–	–	–	–	–	–	–	–	–	–	4.9 ± 1.9%
